Data on 1 molecule can be found in publication PMC3885398, “Evaluation of the Antitumor Effects of BPR1J-340, a Potent and Selective FLT3 Inhibitor, Alone or in Combination with an HDAC Inhibitor, Vorinostat, in AML Cancer” (PLoS ONE, 2014).

For one data set, the target named is FLT3-ITD (Homo sapiens, UniProt P36888). As to the kind of experiment: FLT3 phosphorylation in MV4;11 cells, Western blot. The data set is classed as cell-based. To be noted: 1 hour. The method, then:
Cells were lysed in lysis buffer (50 mM Tris, pH 8.0, 150 mM NaCl, 1% Triton X-100, 0.5% sodium deoxycholate, 0.1% SDS, 1 mM sodium orthovanadate, 1 mM PMSF, and 1 mM DTT). Protein lysates were resolved by SDS-PAGE and transferred onto a polyvinylidene difluoride (PVDF) membrane (Millipore, Bedford, MA, USA). The membranes were immunoblotted with appropriate antibodies and detected using the SuperSignal reagent (Pierce, Rockford, IL, USA) followed by exposure to X-ray film.
To address whether BPR1J-340 was able to inhibit the FLT3 signaling pathway in FLT3-driven cells, MV4;11 cells were treated with different concentrations of BPR1J-340 for 1 hour, and the phosphorylation status of FLT3 and STAT5 (Signal Transducer and Activator of Transcription 5), a critical down-stream modulator that plays a major role in FLT3-ITD signal transduction for cell expansion and survival, was examined by Western blot analysis. […] To investigate the difference in sensitivity between FLT3-WT and the activating mutants FLT3-ITD and FLT3-D835Y to BPR1J-340, HEK293T cells engineered to express FLT3-WT or mutants FLT3 (FLT3-ITD, FLT3-D835Y) were analyzed. […]
Figure 2 BPR1J-340 inhibits FLT3-dependent signaling. […] The phosphorylation status of FLT3 and STAT5 were evaluated by Western blot analysis. […] The FLT3 phosphorylation status in the transfected cells was evaluated by Western blot analysis.

Data set [1] is described as follows: Pharmacokinetic analysis in rats. The data set is classed as in vivo, Sprague-Dawley rats. The method, then: The uses of animals were approved by The Institutional Care and Use Committee of the National Health Research Institutes. Briefly, male Sprague-Dawley rats weighing 300–400 g each were obtained from BioLASCO, Taiwan Co., Ltd., Ilan, Taiwan. One day prior dosing, rats were surgically prepared with a jugular-vein cannula and fasted overnight (∼18–20 hr). Water was available ad libitum. Food was provided at 4 hours after dosing. Single 1.5 mg/kg intravenous dose of BPR1J-340, as a PEG400/water (80/20, v/v) solution, was separately administered to groups of 3 rats each via the jugular-vein cannula. At 0 (prior to dosing), 2, 5, 15 and 30 min. and at 1, 2, 4, 6, 8 and 24 hr after dosing, a blood sample was collected. Plasma was separated from the blood by centrifugation (14,000 g for 15 min at 4°C in a Beckman Model AllegraTM 6R centrifuge) and stored in a freezer (−20°C) until analysis. All plasma samples were analyzed by LC-MS/MS. Plasma concentration data were analyzed with non-compartmental method for pharmacokinetic determination.

The next data set has as its target T1, RPS6KB1 (p70S6K) (Homo sapiens, UniProt P23443).
T1 construct: purchased Invitrogen SelectScreen
As to the kind of experiment: Invitrogen SelectScreen kinase profiling. The following applies: 100 nM. The data set is classed as biochemical. The method, then:
(§1) The FLT3 and VEGFR1/2 Kinase-Glo kinase assays were performed as reported by our earlier study. The VEGFR3 activity analysis was conducted using the same protocol described in the VEGFR1/2 assay. The kinase inhibition profiling and inhibitory activity of FLT3-D835Y, CSF1R, and TRKA were determined by Invitrogen SelectScreen® kinase profiling service (Carlsbad, California, USA).
(§2) BPR1J-340, a urea-substituted 3-phenyl-1H-5-pyrazolylamine-based compound, was designed through chemical modification of sulfonamide series of derivatives (BPR1J-097 series) by a structure-activity relationship (SAR) study (Fig. 1), [32]. For kinase inhibition specificity screening, BPR1J-340 was tested against 59 protein kinases covering the major oncogenic kinases of human protein kinome. […] In addition, BPR1J-340 inhibited TRKA, which is associated with the growth and metastasis of breast cancers, with an IC50 value of 8 nM. Given the high similarity of the ATP binding pockets of FLT3 and the Aurora kinases, the inhibitory activity toward Aurora A and Aurora B were measured. […] Taken together, BPRJ-340 is a selective kinase inhibitor with in vitro activity against FLT3, VEGFR2, VEGFR3 and TRKA receptor tyrosine kinases.

In another data set the target is T2, IGF1R (Homo sapiens, UniProt P08069).
T2 construct: purchased Invitrogen SelectScreen
As to the kind of experiment: Invitrogen SelectScreen kinase profiling. The data set is classed as biochemical. To be noted: 100 nM. Here is the method: as §1, §2

The target in another data set is T3, MAPK8 (JNK1) (Homo sapiens, UniProt P45983).
T3 construct: purchased Invitrogen SelectScreen
In words: Invitrogen SelectScreen kinase profiling. The data set is classed as biochemical. To be noted: 100 nM. Here is the method:
as §1, §2

A further data set has as its target T4, FRAP1 (mTOR) (Homo sapiens, UniProt P42345).
T4 construct: purchased Invitrogen SelectScreen
In words: Invitrogen SelectScreen kinase profiling. The following applies: 100 nM. The data set is classed as biochemical. The method, then:
as §1, §2

A further data set deals with T5, SGKL (SGK3) (Homo sapiens, UniProt Q96BR1).
T5 construct: purchased Invitrogen SelectScreen
As to the kind of experiment: Invitrogen SelectScreen kinase profiling. The data set is classed as biochemical. The following applies: 100 nM. Here is the method: as §1, §2

For the next data set, the target named is T6, SGK (SGK1) (Homo sapiens, UniProt O00141).
T6 construct: purchased Invitrogen SelectScreen
In words: Invitrogen SelectScreen kinase profiling. The data set is classed as biochemical. To be noted: 100 nM. The method, then:
as §1, §2

The target of the next data set is T7, IKBKE (IKK epsilon) (Homo sapiens, UniProt Q14164).
T7 construct: purchased Invitrogen SelectScreen
As to the kind of experiment: Invitrogen SelectScreen kinase profiling. The data set is classed as biochemical. The following applies: 100 nM. Here is the method: as §1, §2

Another data set deals with T8, JAK2 (Homo sapiens, UniProt O60674).
T8 construct: purchased Invitrogen SelectScreen
As to the kind of experiment: Invitrogen SelectScreen kinase profiling. The data set is classed as biochemical. The following applies: 100 nM. Here is the method:
as §1, §2

The target in another data set is T9, MAP2K1 (MEK1) (Homo sapiens, UniProt Q02750).
T9 construct: purchased Invitrogen SelectScreen
As to the kind of experiment: Invitrogen SelectScreen kinase profiling. The data set is classed as biochemical. To be noted: 100 nM. The method, then: as §1, §2

The next data set has as its target T10, CSK (Homo sapiens, UniProt P41240).
T10 construct: purchased Invitrogen SelectScreen
In words: Invitrogen SelectScreen kinase profiling. To be noted: 100 nM. The data set is classed as biochemical. The method, then: as §1, §2

Another data set has as its target T11, FLT1 (VEGFR1) (Homo sapiens, UniProt P17948).
T11 construct: purchased Invitrogen SelectScreen
As to the kind of experiment: Invitrogen SelectScreen kinase profiling. The data set is classed as biochemical. The following applies: 100 nM. Here is the method: as §1, §2

The target of a further data set is T12, AURKA (Aurora A) (Homo sapiens, UniProt O14965).
T12 construct: purchased Invitrogen SelectScreen
As to the kind of experiment: Invitrogen SelectScreen kinase profiling. The data set is classed as biochemical. To be noted: 100 nM. Here is the method:
as §1, §2

A further data set has as its target T13, TEK (Tie2) (Homo sapiens, UniProt Q02763).
T13 construct: purchased Invitrogen SelectScreen
As to the kind of experiment: Invitrogen SelectScreen kinase profiling. The data set is classed as biochemical. The following applies: 100 nM. The method, then: as §1, §2

The next data set has as its target T14, GSK3B (GSK3 beta) (Homo sapiens, UniProt P49841).
T14 construct: purchased Invitrogen SelectScreen
As to the kind of experiment: Invitrogen SelectScreen kinase profiling. The data set is classed as biochemical. To be noted: 100 nM. The method, then:
as §1, §2

Where “and” joins values, the source holds several entries; their conditions need not be identical. Equal entries are not always repeated.

Sequence of FLT3-ITD (P36888 27-993, change not shown): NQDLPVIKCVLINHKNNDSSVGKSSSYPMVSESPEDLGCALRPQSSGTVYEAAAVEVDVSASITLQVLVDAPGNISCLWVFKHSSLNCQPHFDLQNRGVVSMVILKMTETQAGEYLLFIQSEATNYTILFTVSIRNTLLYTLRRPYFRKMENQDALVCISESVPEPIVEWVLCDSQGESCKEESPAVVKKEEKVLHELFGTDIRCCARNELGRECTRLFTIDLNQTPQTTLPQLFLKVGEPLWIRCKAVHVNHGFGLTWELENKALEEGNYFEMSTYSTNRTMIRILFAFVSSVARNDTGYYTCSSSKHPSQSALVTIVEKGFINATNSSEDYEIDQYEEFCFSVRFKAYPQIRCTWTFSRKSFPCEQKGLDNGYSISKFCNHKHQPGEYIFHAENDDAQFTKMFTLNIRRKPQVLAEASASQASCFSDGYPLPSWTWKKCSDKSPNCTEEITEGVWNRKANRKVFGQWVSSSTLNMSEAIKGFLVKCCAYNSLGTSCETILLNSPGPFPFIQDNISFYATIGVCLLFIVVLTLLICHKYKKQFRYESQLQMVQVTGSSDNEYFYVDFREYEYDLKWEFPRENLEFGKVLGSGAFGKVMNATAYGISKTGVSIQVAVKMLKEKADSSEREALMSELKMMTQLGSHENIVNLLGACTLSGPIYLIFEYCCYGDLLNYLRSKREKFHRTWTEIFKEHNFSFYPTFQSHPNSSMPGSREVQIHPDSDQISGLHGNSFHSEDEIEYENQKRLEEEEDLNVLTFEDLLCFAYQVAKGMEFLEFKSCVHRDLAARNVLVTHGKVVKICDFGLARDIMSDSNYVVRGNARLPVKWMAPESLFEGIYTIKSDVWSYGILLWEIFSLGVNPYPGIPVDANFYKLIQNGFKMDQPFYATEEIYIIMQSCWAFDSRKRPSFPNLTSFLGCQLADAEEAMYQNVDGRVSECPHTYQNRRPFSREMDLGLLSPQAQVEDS
T8 sequence (O60674 whole entry): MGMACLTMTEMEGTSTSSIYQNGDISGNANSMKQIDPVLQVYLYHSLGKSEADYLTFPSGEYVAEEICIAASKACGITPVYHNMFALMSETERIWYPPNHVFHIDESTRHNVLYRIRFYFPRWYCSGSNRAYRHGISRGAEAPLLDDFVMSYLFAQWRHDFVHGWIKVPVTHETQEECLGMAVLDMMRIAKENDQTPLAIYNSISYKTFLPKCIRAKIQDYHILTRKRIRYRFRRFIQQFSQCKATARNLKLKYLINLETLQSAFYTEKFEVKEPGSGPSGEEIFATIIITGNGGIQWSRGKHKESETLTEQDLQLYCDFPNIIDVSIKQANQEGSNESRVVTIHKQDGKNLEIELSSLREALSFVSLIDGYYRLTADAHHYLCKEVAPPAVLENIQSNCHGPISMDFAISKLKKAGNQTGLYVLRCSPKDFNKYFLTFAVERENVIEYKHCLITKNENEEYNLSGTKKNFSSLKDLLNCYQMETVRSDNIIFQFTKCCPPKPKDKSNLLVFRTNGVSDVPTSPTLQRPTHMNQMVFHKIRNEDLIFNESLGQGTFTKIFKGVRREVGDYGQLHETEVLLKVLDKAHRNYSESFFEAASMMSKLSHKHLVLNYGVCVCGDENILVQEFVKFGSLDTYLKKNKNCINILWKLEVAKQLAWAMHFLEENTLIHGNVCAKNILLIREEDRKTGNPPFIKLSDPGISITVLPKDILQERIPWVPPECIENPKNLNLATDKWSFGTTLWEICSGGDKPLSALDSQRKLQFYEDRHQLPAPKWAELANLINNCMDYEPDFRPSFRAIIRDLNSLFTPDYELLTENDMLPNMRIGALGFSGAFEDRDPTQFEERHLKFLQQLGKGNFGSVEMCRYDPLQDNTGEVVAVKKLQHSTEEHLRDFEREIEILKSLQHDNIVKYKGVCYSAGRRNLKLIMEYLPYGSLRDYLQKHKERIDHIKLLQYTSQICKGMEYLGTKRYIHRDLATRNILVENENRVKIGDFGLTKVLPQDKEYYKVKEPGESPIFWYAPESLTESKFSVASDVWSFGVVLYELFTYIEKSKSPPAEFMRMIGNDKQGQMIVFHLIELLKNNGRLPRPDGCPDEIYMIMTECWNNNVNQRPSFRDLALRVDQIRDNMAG
T11 sequence (P17948 27-1338): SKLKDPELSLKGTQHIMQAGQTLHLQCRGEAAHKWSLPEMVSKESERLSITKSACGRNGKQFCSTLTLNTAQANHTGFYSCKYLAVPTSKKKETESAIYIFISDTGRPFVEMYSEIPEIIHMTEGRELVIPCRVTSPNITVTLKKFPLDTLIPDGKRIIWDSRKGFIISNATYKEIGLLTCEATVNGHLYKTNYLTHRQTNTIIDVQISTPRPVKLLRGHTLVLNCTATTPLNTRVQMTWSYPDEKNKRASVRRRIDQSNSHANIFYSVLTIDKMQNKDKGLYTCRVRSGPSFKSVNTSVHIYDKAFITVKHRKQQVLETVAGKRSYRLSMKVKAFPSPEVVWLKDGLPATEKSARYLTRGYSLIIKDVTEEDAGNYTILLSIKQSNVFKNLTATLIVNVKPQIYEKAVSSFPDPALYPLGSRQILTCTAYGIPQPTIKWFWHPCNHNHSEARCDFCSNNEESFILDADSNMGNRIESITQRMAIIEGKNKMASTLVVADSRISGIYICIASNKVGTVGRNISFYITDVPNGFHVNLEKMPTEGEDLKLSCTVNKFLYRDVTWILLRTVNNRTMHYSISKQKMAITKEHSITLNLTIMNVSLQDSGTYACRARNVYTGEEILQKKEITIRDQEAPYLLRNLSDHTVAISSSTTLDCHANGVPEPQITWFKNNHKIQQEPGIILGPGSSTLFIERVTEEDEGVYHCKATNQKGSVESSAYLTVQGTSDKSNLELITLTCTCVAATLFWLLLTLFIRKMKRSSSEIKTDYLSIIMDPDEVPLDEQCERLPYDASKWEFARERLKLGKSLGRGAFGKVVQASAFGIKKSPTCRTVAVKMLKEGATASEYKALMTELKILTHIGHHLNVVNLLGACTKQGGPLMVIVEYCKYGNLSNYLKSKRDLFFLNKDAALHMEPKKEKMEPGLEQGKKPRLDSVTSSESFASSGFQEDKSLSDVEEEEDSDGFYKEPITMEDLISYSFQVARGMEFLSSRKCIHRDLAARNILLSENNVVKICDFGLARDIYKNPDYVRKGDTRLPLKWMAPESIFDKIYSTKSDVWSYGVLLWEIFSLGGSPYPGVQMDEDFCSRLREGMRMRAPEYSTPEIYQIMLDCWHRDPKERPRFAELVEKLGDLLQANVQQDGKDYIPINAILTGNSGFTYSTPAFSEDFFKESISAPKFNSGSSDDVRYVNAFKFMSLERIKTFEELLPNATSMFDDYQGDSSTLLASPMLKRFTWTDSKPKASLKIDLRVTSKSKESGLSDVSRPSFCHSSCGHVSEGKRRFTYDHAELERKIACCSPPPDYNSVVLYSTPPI
T2 sequence (P08069 31-1367): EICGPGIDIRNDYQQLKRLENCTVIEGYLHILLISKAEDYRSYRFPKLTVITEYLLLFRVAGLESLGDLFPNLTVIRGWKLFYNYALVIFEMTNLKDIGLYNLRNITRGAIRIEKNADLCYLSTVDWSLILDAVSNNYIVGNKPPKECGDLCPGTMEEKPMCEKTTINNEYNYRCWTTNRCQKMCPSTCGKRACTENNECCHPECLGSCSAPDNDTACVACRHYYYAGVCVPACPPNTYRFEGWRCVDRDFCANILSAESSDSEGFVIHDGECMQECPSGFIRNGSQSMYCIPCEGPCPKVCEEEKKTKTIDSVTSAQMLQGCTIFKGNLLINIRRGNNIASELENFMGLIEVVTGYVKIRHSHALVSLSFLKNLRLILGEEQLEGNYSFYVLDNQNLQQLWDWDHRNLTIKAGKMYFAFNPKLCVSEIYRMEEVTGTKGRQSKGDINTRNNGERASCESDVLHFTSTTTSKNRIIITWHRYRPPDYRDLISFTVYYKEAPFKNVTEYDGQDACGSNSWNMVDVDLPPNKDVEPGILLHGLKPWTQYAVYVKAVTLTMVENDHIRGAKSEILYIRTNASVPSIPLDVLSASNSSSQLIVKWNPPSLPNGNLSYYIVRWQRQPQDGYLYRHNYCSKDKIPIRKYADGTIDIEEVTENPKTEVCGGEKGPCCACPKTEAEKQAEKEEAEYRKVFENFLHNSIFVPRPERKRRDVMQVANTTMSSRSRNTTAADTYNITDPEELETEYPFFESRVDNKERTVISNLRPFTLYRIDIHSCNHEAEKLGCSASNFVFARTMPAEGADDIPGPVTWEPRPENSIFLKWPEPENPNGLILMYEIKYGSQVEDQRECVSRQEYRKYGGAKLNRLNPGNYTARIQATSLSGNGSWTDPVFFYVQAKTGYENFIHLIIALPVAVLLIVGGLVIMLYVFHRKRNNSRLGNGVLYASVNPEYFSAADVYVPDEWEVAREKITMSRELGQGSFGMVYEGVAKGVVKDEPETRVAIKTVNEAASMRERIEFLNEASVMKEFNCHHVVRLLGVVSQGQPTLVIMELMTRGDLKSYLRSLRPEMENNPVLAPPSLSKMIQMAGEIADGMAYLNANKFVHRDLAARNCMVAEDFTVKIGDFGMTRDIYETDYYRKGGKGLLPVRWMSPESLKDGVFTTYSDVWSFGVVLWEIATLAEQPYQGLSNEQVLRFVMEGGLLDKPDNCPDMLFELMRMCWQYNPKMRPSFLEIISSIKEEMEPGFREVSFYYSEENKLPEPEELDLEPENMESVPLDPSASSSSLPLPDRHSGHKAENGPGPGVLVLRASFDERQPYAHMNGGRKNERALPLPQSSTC

As usually defined, the IC50 is the concentration that inhibits the measured activity by half. A low value points to greater potency. For orientation: clearance means the rate of elimination divided by the concentration. Higher therefore signals efficient removal. The term half-life denotes how long it takes for the measured level to halve. Read a high half-life as slow loss. What is called inhibition is the drop in the measured response relative to a control, in per cent. `CCc1cc(NC(=O)NCc2ccc(-c3cc(NC(=O)c4ccc(CN5CCN(C)CC5)cc4)[nH]n3)cc2)no1` [BPR1J-340, N1-(3-4-[([(5-ethyl-3-isoxazolyl)amino]carbonylamino)methyl]phenyl-1H-5-pyrazolyl)-4-[(4-methylpiperazino)methyl]benzamide] came in with an IC50 at FLT3-ITD of roughly 1 nM. Also, the maximum plasma concentration in data set [1] (Rat IV 1.5 mg/kg, at 2 min after dosing, 1.5 mg/kg) was 7.9 µM and 4,296 ng/mL. In data set [1] (Rat IV 1.5 mg/kg, for 6 hours), the “plasma concentration maintained for 6 hours” value was “exceeded 80 ng/mL”. The same molecule showed a T1/2 in data set [1] (Rat IV, dose 1.5 mg/kg, listed as BRP1J-340, 1.5 mg/kg) of 8.8 ± 0.6 h. For the same molecule, the “maximum achievable plasma concentration above the IC50 for FLT3-ITD inhibition” value in data set [1] (Rat, single 1.5 mg/kg) is recorded as “more than 272 fold”. The concentration at 24 h in [1] (male, Sprague-Dawley, plasma, Rat IV 1.5 mg/kg, 24 hour after dosing, read-out: plasma concentration C24 hour) was 9.9 ng/mL and 18 nM. Moreover, in data set [1] (male, Sprague-Dawley, plasma, Rat IV, dose 1.5 mg/kg), the clearance worked out at 20.4 ± 5.2 mL/min/kg. For the same molecule, the AUC(0-t) in data set [1] (male, Sprague-Dawley, plasma, Rat IV, dose 1.5 mg/kg, read-out: AUC(0–24)) was 1130 ± 260 ng·h/mL. In addition, the Vd in data set [1] (male, Sprague-Dawley, plasma, Rat IV, dose 1.5 mg/kg, read-out: Vss) amounted to 10.3 ± 2.5 L/kg. This molecule also had a half-life in data set [1] (male, Sprague-Dawley, rat, plasma, iv, 1.5 mg/kg, Rat IV) of roughly 8.8 h. Moreover, the inhibition at 0.1 µM against RPS6KB1 (p70S6K) is -18%; against IGF1R, 12%; against MAPK8 (JNK1), 14%; against FRAP1 (mTOR) it was -8%; on SGKL (SGK3) it was 12%; on SGK (SGK1) it was 11%. Further, the inhibition at 0.1 µM on IKBKE (IKK epsilon) turned out to be 21%; against JAK2, 9%; at MAP2K1 (MEK1), 0%; at CSK it was 3%; against FLT1 (VEGFR1), 15%; on AURKA (Aurora A), 15%. Besides, the inhibition at 0.1 µM against TEK (Tie2) stood at 42%; on GSK3B (GSK3 beta), 36%.
